Values after ≈ are worked out from the molar mass of the structure shown.
Key:
Test in all cases: MIC, two-fold dilution method on Müller-Hinton agar
Format in all cases: cell-based
Conditions in all cases: incubated at 37°C for 20 hours
[1] = tested on: Acinetobacter calcoaceticus ATCC 15473
Description: (§1) The same procedures as described in Example 163 were repeated using 7-amino-1,8-dimethyl[1,3]imidazo[1,2-c] pyrimidine-5-thione prepared in Preparation Example 36 in place of 7-amino-1-methyl[1,3]imidazo[1,2-c]pyrimidine-5-thione to yield 190mg and 180mg of the title compound(a) and (b), respectively, as white solids.
(§2) These MIC values were taken by employing a two-fold dilution method: that is, two-fold serial dilutions of each of the test compounds were made and dispersed in a Müller-Hinton agar medium; 2µl of the standard test strain which had the 10⁷ CFU(Colony Forming Unit) per ml was inoculated on the medium; and these were incubated at 37°C for 20 hours.

[2] = tested on: Bacillus cereus ATCC 11778
Description: as §1, §2

[3] = tested on: Bacillus megaterium ATCC 9885
Description: as §1, §2

[4] = tested on: Citrobacter freundii ATCC 8090
Description: as §1, §2

[5] = tested on: Enterobacter aerogenes ATCC 29751
Description: as §1, §2

[6] = tested on: Enterobacter cloacae ATCC 27508
Description: as §1, §2

[7] = tested on: Escherichia coli ATCC 10536
Description: as §1, §2

[8] = tested on: Escherichia coli ATCC 25922
Description: as §1, §2

[9] = tested on: Klebsiella pneumoniae ATCC 10031
Description: as §1, §2

[10] = tested on: Micrococcus luteus ATCC 9341
Description: as §1, §2

[11] = tested on: Morganella morganii ATCC 8076h
Description: as §1, §2

[12] = tested on: Proteus mirabilis ATCC 25933
Description: as §1, §2

[13] = tested on: Proteus vulgaris ATCC 6059
Description: as §1, §2

[14] = tested on: Providencia rettgeri ATCC 9250
Description: as §1, §2

[15] = tested on: Pseudomonas aeruginosa ATCC 10145
Description: as §1, §2

[16] = tested on: Pseudomonas aeruginosa ATCC 25619
Description: as §1, §2

[17] = tested on: Pseudomonas aeruginosa ATCC 27853
Description: as §1, §2

[18] = tested on: Salmonella typhimurium ATCC 14028
Description: as §1, §2

[19] = tested on: Serratia marcescens ATCC 27117
Description: as §1, §2

[20] = tested on: Shigella flexneri ATCC 11836
Description: as §1, §2

[21] = tested on: Shigella sonnei ATCC 11060
Description: as §1, §2

[22] = tested on: Staphylococcus aureus ATCC 10537
Description: as §1, §2

[23] = tested on: Staphylococcus aureus ATCC 6538p
Description: as §1, §2

[24] = tested on: Staphylococcus epidermidis ATCC 12228
Description: as §1, §2

[25] = tested on: Streptococcus faecalis ATCC 29212
Description: as §1, §2

Compound	MIC values against the standard strains [1] [µg/mL]	MIC values against the standard strains [2] [µg/mL]	MIC values against the standard strains [3] [µg/mL]	MIC values against the standard strains [4] [µg/mL]	MIC values against the standard strains [5] [µg/mL]	MIC values against the standard strains [6] [µg/mL]	MIC values against the standard strains [7] [µg/mL]	MIC values against the standard strains [8] [µg/mL]	MIC values against the standard strains [9] [µg/mL]	MIC values against the standard strains [10] [µg/mL]	MIC values against the standard strains [11] [µg/mL]	MIC values against the standard strains [12] [µg/mL]	MIC values against the standard strains [13] [µg/mL]	MIC values against the standard strains [14] [µg/mL]	MIC values against the standard strains [15] [µg/mL]	MIC values against the standard strains [16] [µg/mL]	MIC values against the standard strains [17] [µg/mL]	MIC values against the standard strains [18] [µg/mL]	MIC values against the standard strains [19] [µg/mL]	MIC values against the standard strains [20] [µg/mL]	further results
7-[(Z)-2-(2-aminothiazol-4-yl)-2-(2-carboxyprop-2-oxyimino)acetamido]-3-(7-amino-1-methyl [1,2,4]triazolo[1,5-c]pyrimidinium-5-yl)thiomethyl-3-cephem-4-carboxylate [Exp. 1]	4	128	0.25	0.13	1	0.016	0.063	0.13	0.063	0.13	≤0.008	0.13	0.063	≤0.008	2	1	1	0.25	0.25	0.031	MIC values against the standard strains [21]: 0.13 µg/mL; MIC values against the standard strains [22]: 4 µg/mL; MIC values against the standard strains [23]: 4 µg/mL; MIC values against the standard strains [24]: 1 µg/mL; MIC values against the standard strains [25]: >128 µg/mL
CCC(C)(O/N=C(\C(=O)NC1C(=O)N2C(C(=O)[O-])=C(CSc3nc(N)cc4n3nc(N)[n+]4C)CS[C@H]12)c1csc(N)n1)C(=O)O (stereo partly shown) [Exp. 96(b), 7-[(Z)-2-(2-aminothiazol-4-yl)-2-(2-carboxybut-2-oxyimino)acetamido]-3-(2,7-diamino-1-methyl[1,2,4]triazolo[1,5-c]pyrimidinium-5-yl)thiomethyl-3-cephem-4-carboxylate]	4 (≈ 5.9 µM)	16 (≈ 23.6 µM)	0.25 (≈ 0.369 µM)	0.13 (≈ 0.192 µM)	0.5 (≈ 0.738 µM)	0.063 (≈ 0.093 µM)	0.13 (≈ 0.192 µM)	0.13 (≈ 0.192 µM)	≤0.008	0.016 (≈ 0.0236 µM)	≤0.008	0.13 (≈ 0.192 µM)	0.063 (≈ 0.093 µM)	≤0.008	2 (≈ 2.95 µM)	0.5 (≈ 0.738 µM)	1 (≈ 1.48 µM)	0.25 (≈ 0.369 µM)	0.13 (≈ 0.192 µM)	0.031 (≈ 0.0457 µM)	MIC values against the standard strains [21]: 0.13 µg/mL (≈ 0.192 µM); MIC values against the standard strains [22]: 1 µg/mL (≈ 1.48 µM); MIC values against the standard strains [23]: 1 µg/mL (≈ 1.48 µM); MIC values against the standard strains [24]: 0.5 µg/mL (≈ 0.738 µM); MIC values against the standard strains [25]: 16 µg/mL (≈ 23.6 µM)
7-[(Z)-2-(2-aminothiazol-4-yl)-2-(1-carboxycyclopentoxyimino)acetamido]-3-(2,7-diamino-1-methyl [1,2,4]triazolo[1,5-c]pyrimidinium-5-yl)thiomethyl-3-cephem-4-carboxylate [Exp. 84]	2	32	0.25	0.063	0.25	≤0.008	0.063	0.063	0.063	0.016	≤0.008	0.063	0.063	≤0.008	2	1	1	0.13	0.13	0.063	MIC values against the standard strains [21]: 0.13 µg/mL; MIC values against the standard strains [22]: 0.25 µg/mL; MIC values against the standard strains [23]: 0.25 µg/mL; MIC values against the standard strains [24]: 0.5 µg/mL; MIC values against the standard strains [25]: 32 µg/mL
7-[(Z)-2-(2-aminothiazol-4-yl)-2-((S-1-carboxyeth-1-oxyimino)acetamido]-3-(7-amino-1-methyl [1,2,4]triazolo[1,5-c]pyrimidinium-5-yl)thiomethyl-3-cephem-4-carboxylate [Exp. 22(S)]	4	128	0.25	0.063	0.5	0.016	0.031	0.13	0.031	0.13	≤0.008	0.25	0.31	≤0.008	2	1	2	0.25	0.13	0.13	MIC values against the standard strains [21]: 0.063 µg/mL; MIC values against the standard strains [22]: 2 µg/mL; MIC values against the standard strains [23]: 4 µg/mL; MIC values against the standard strains [24]: 1 µg/mL; MIC values against the standard strains [25]: >128 µg/mL

From patent publication EP0582261A1, “Cephalosporin compounds and processes for the preparation thereof” (LUCKY LTD., priority 1992, dated 1994)
